In brackets after ≈: the same amount, converted by molar mass.
How the values were obtained:
Type in all cases: functional
Rhizoctonia solani [1] = assay: Antifungal activity against Rhizoctonia solani at 500 ug/ml after 72 hrs by agar well diffusion method; settings: read-out: DIZ
Fusarium oxysporum [2] = assay: Antifungal activity against Fusarium oxysporum at 200 ug/ml after 72 hrs by agar well diffusion method; settings: read-out: DIZ
Aspergillus niger [3] = assay: Antifungal activity against Aspergillus niger at 300 ug/ml after 72 hrs by agar well diffusion method; settings: read-out: DIZ
Aspergillus flavus [4] = assay: Antifungal activity against Aspergillus flavus at 500 ug/ml after 72 hrs by agar well diffusion method; settings: read-out: DIZ
Bacillus subtilis [5] = assay: Antibacterial activity against Bacillus subtilis at 500 ug/ml after 24 hrs by agar well diffusion method; settings: read-out: DIZ
Staphylococcus aureus [6] = assay: Antibacterial activity against Staphylococcus aureus ATCC 6538 after 24 hrs by agar well diffusion method; settings: ATCC 6538, 24 h
Rhizoctonia solani [7] = assay: Antifungal activity against Rhizoctonia solani at 200 ug/ml after 72 hrs by agar well diffusion method; settings: read-out: DIZ
Klebsiella pneumoniae [8] = assay: Antibacterial activity against Klebsiella pneumoniae after 24 hrs by agar well diffusion method
Escherichia coli [9] = assay: Antibacterial activity against Escherichia coli ATCC 8739 at 300 ug/ml after 24 hrs by agar well diffusion method; settings: ATCC 8739, 24 h, read-out: DIZ
Klebsiella pneumoniae [10] = assay: Antibacterial activity against Klebsiella pneumoniae at 200 ug/ml after 24 hrs by agar well diffusion method; settings: read-out: DIZ
Aspergillus flavus [11] = assay: Antifungal activity against Aspergillus flavus after 72 hrs by agar well diffusion method
Staphylococcus aureus [12] = assay: Antibacterial activity against Staphylococcus aureus ATCC 6538 at 100 ug/ml after 24 hrs by agar well diffusion method; settings: ATCC 6538, 24 h, read-out: DIZ
Staphylococcus aureus [13] = assay: Antibacterial activity against Staphylococcus aureus ATCC 6538 at 50 ug/ml after 24 hrs by agar well diffusion method; settings: ATCC 6538, 24 h, read-out: DIZ
Aspergillus flavus [14] = assay: Antifungal activity against Aspergillus flavus at 100 ug/ml after 72 hrs by agar well diffusion method; settings: read-out: DIZ
Staphylococcus aureus [15] = assay: Antibacterial activity against Staphylococcus aureus ATCC 6538 at 200 ug/ml after 24 hrs by agar well diffusion method; settings: ATCC 6538, 24 h, read-out: DIZ
Escherichia coli [16] = assay: Antibacterial activity against Escherichia coli ATCC 8739 at 100 ug/ml after 24 hrs by agar well diffusion method; settings: ATCC 8739, 24 h, read-out: DIZ
Aspergillus niger [17] = assay: Antifungal activity against Aspergillus niger at 50 ug/ml after 72 hrs by agar well diffusion method; settings: read-out: DIZ
Fusarium oxysporum [18] = assay: Antifungal activity against Fusarium oxysporum after 72 hrs by agar well diffusion method
Klebsiella pneumoniae [19] = assay: Antibacterial activity against Klebsiella pneumoniae at 50 ug/ml after 24 hrs by agar well diffusion method; settings: read-out: DIZ
Fusarium oxysporum [20] = assay: Antifungal activity against Fusarium oxysporum at 50 ug/ml after 72 hrs by agar well diffusion method; settings: read-out: DIZ
Klebsiella pneumoniae [21] = assay: Antibacterial activity against Klebsiella pneumoniae at 300 ug/ml after 24 hrs by agar well diffusion method; settings: read-out: DIZ
Aspergillus flavus [22] = assay: Antifungal activity against Aspergillus flavus at 50 ug/ml after 72 hrs by agar well diffusion method; settings: read-out: DIZ
Escherichia coli [23] = assay: Antibacterial activity against Escherichia coli ATCC 8739 at 500 ug/ml after 24 hrs by agar well diffusion method; settings: ATCC 8739, 24 h, read-out: DIZ
Bacillus subtilis [24] = assay: Antibacterial activity against Bacillus subtilis at 50 ug/ml after 24 hrs by agar well diffusion method; settings: read-out: DIZ
Aspergillus flavus [25] = assay: Antifungal activity against Aspergillus flavus at 300 ug/ml after 72 hrs by agar well diffusion method; settings: read-out: DIZ
Escherichia coli [26] = assay: Antibacterial activity against Escherichia coli ATCC 8739 after 24 hrs by agar well diffusion method; settings: ATCC 8739, 24 h
Escherichia coli [27] = assay: Antibacterial activity against Escherichia coli ATCC 8739 at 200 ug/ml after 24 hrs by agar well diffusion method; settings: ATCC 8739, 24 h, read-out: DIZ
Escherichia coli [28] = assay: Antibacterial activity against Escherichia coli ATCC 8739 at 50 ug/ml after 24 hrs by agar well diffusion method; settings: ATCC 8739, 24 h, read-out: DIZ
Aspergillus flavus [29] = assay: Antifungal activity against Aspergillus flavus at 200 ug/ml after 72 hrs by agar well diffusion method; settings: read-out: DIZ
Rhizoctonia solani [30] = assay: Antifungal activity against Rhizoctonia solani at 100 ug/ml after 72 hrs by agar well diffusion method; settings: read-out: DIZ
Klebsiella pneumoniae [31] = assay: Antibacterial activity against Klebsiella pneumoniae at 500 ug/ml after 24 hrs by agar well diffusion method; settings: read-out: DIZ
Staphylococcus aureus [32] = assay: Antibacterial activity against Staphylococcus aureus ATCC 6538 at 500 ug/ml after 24 hrs by agar well diffusion method; settings: ATCC 6538, 24 h, read-out: DIZ
Bacillus subtilis [33] = assay: Antibacterial activity against Bacillus subtilis at 100 ug/ml after 24 hrs by agar well diffusion method; settings: read-out: DIZ
Aspergillus niger [34] = assay: Antifungal activity against Aspergillus niger at 200 ug/ml after 72 hrs by agar well diffusion method; settings: read-out: DIZ
Klebsiella pneumoniae [35] = assay: Antibacterial activity against Klebsiella pneumoniae at 100 ug/ml after 24 hrs by agar well diffusion method; settings: read-out: DIZ
Fusarium oxysporum [36] = assay: Antifungal activity against Fusarium oxysporum at 500 ug/ml after 72 hrs by agar well diffusion method; settings: read-out: DIZ
Bacillus subtilis [37] = assay: Antibacterial activity against Bacillus subtilis at 300 ug/ml after 24 hrs by agar well diffusion method; settings: read-out: DIZ
Fusarium oxysporum [38] = assay: Antifungal activity against Fusarium oxysporum at 300 ug/ml after 72 hrs by agar well diffusion method; settings: read-out: DIZ
Fusarium oxysporum [39] = assay: Antifungal activity against Fusarium oxysporum at 100 ug/ml after 72 hrs by agar well diffusion method; settings: read-out: DIZ
Aspergillus niger [40] = assay: Antifungal activity against Aspergillus niger at 500 ug/ml after 72 hrs by agar well diffusion method; settings: read-out: DIZ
Rhizoctonia solani [41] = assay: Antifungal activity against Rhizoctonia solani at 50 ug/ml after 72 hrs by agar well diffusion method; settings: read-out: DIZ
Staphylococcus aureus [42] = assay: Antibacterial activity against Staphylococcus aureus ATCC 6538 at 300 ug/ml after 24 hrs by agar well diffusion method; settings: ATCC 6538, 24 h, read-out: DIZ
Bacillus subtilis [43] = assay: Antibacterial activity against Bacillus subtilis after 24 hrs by agar well diffusion method
Rhizoctonia solani [44] = assay: Antifungal activity against Rhizoctonia solani at 300 ug/ml after 72 hrs by agar well diffusion method; settings: read-out: DIZ
Aspergillus niger [45] = assay: Antifungal activity against Aspergillus niger after 72 hrs by agar well diffusion method
Rhizoctonia solani [46] = assay: Antifungal activity against Rhizoctonia solani after 72 hrs by agar well diffusion method
Aspergillus niger [47] = assay: Antifungal activity against Aspergillus niger at 100 ug/ml after 72 hrs by agar well diffusion method; settings: read-out: DIZ
Bacillus subtilis [48] = assay: Antibacterial activity against Bacillus subtilis at 200 ug/ml after 24 hrs by agar well diffusion method; settings: read-out: DIZ

Cn1cc(C=C2C(=O)OC(C)(C)OC2=O)c2cc(Br)ccc21
zone of inhibition at 500 µg/mL (Rhizoctonia solani [1]): 29 mm
zone of inhibition at 200 µg/mL (Fusarium oxysporum [2]): 16 mm
zone of inhibition at 300 µg/mL (Aspergillus niger [3]): 18 mm
zone of inhibition at 500 µg/mL (Aspergillus flavus [4]): 23 mm
zone of inhibition at 500 µg/mL (Bacillus subtilis [5]): 23 mm
MIC (Staphylococcus aureus [6]): 25 mg/L (≈ 68.6 µM)
zone of inhibition at 200 µg/mL (Rhizoctonia solani [7]): 16 mm
MIC (Klebsiella pneumoniae [8]): 15 mg/L (≈ 41.2 µM)
zone of inhibition at 300 µg/mL (Escherichia coli [9]): 21 mm
zone of inhibition at 200 µg/mL (Klebsiella pneumoniae [10]): 18 mm
MIC (Aspergillus flavus [11]): 40 mg/L (≈ 110 µM)
zone of inhibition at 100 µg/mL (Staphylococcus aureus [12]): 10 mm
zone of inhibition at 50 µg/mL (Staphylococcus aureus [13]): 6 mm
zone of inhibition at 100 µg/mL (Aspergillus flavus [14]): 9 mm
zone of inhibition at 200 µg/mL (Staphylococcus aureus [15]): 13 mm
zone of inhibition at 100 µg/mL (Escherichia coli [16]): 13.5 mm
zone of inhibition at 50 µg/mL (Aspergillus niger [17]): 6 mm
MIC (Fusarium oxysporum [18]): 35 mg/L (≈ 96.1 µM)
zone of inhibition at 50 µg/mL (Klebsiella pneumoniae [19]): 9 mm
zone of inhibition at 50 µg/mL (Fusarium oxysporum [20]): 7 mm
zone of inhibition at 300 µg/mL (Klebsiella pneumoniae [21]): 23 mm
zone of inhibition at 50 µg/mL (Aspergillus flavus [22]): 4 mm
zone of inhibition at 500 µg/mL (Escherichia coli [23]): 30 mm
zone of inhibition at 50 µg/mL (Bacillus subtilis [24]): 5 mm
zone of inhibition at 300 µg/mL (Aspergillus flavus [25]): 15 mm
MIC (Escherichia coli [26]): 15 mg/L (≈ 41.2 µM)
zone of inhibition at 200 µg/mL (Escherichia coli [27]): 14 mm
zone of inhibition at 50 µg/mL (Escherichia coli [28]): 8.4 mm
zone of inhibition at 200 µg/mL (Aspergillus flavus [29]): 12 mm
zone of inhibition at 100 µg/mL (Rhizoctonia solani [30]): 12 mm
zone of inhibition at 500 µg/mL (Klebsiella pneumoniae [31]): 32 mm
zone of inhibition at 500 µg/mL (Staphylococcus aureus [32]): 25 mm
zone of inhibition at 100 µg/mL (Bacillus subtilis [33]): 9.5 mm
zone of inhibition at 200 µg/mL (Aspergillus niger [34]): 14 mm
zone of inhibition at 100 µg/mL (Klebsiella pneumoniae [35]): 14 mm
zone of inhibition at 500 µg/mL (Fusarium oxysporum [36]): 29 mm
zone of inhibition at 300 µg/mL (Bacillus subtilis [37]): 15 mm
zone of inhibition at 300 µg/mL (Fusarium oxysporum [38]): 21 mm
zone of inhibition at 100 µg/mL (Fusarium oxysporum [39]): 12 mm
zone of inhibition at 500 µg/mL (Aspergillus niger [40]): 25 mm
zone of inhibition at 50 µg/mL (Rhizoctonia solani [41]): 7 mm
zone of inhibition at 300 µg/mL (Staphylococcus aureus [42]): 17 mm
MIC (Bacillus subtilis [43]): 30 mg/L (≈ 82.4 µM)
zone of inhibition at 300 µg/mL (Rhizoctonia solani [44]): 21 mm
MIC (Aspergillus niger [45]): 40 mg/L (≈ 110 µM)
MIC (Rhizoctonia solani [46]): 35 mg/L (≈ 96.1 µM)
zone of inhibition at 100 µg/mL (Aspergillus niger [47]): 10 mm
zone of inhibition at 200 µg/mL (Bacillus subtilis [48]): 11 mm
